# Assay results reported in patent US7976877B2, “Use of knotwood extracts” (Oy Arbonova Ab, priority 2003, dated 2011).
# Columns and labels:
# Format in all cases: biochemical
# [1] = system: t-butylhydroperoxide (t-BuOOH) induced lipid peroxidation in rat liver microsomes; assay: Inhibition of t-BuOOH induced lipid peroxidation in rat liver microsomes in vitro (luminol-enhanced chemiluminescence)
# Excerpt: Estimation of inhibition of lipid peroxidation. The antioxidant properties of the extracts, fractions thereof and the pure compounds were estimated by their potency to inhibit t-butylhydroperoxide (t-BuOOH) induced lipid peroxidation in rat liver microsomes in vitro (17) and by their capacity to trap superoxide (oxygen radical) and peroxyl radicals, estimated by chemiluminescence-based methodology (17). The lipid peroxidation was detected by luminol-enhanced chemiluminescence. Test compounds or extracts were added to incubation mixtures in a small volume (2% of incubation volume), and the lipid peroxidation potency was compared to that of the vehicle (ethanol). Assays for the t-BuOOH-initiated lipid peroxidation was performed as follows. The buffer (50 mM sodium carbonate, pH 10.2, with 0.1 mM EDTA) was pipetted in a volume of 0.8 mL in the luminometer cuvette. 20 μL of diluted rat liver microsomes (final concentration 1.5 μg protein/mL) was added, followed by 6 μL of luminol (0.5 mg/mL) and test chemicals. The reaction was initiated by 0.05 mL of 0.9 mM t-BuOOH at 33° C. The chemiluminescence was measured for 45 min at 1 min cycles. The tests were repeated two to four times on separate days. Variation between assays were <10%.
# [2] = Scavenging of superoxide radicals in vitro (xanthine-xanthine oxidase system, lucigenin chemiluminescence)
# Description: (§1) Estimation of free radical trapping capacity. The capacity of the extracts, fractions thereof and the pure compounds to trap superoxide (oxygen radical) and peroxyl radicals was estimated by chemiluminescence-based methodology (17). Superoxide anions were produced by xanthine-xanthine oxidase system as follows. 20 μL of xanthine oxidase (420 mU/mL), 0.02 mL of 5 mM lucigenin, 0.02 mL of 200 mM linoleic acid dissolved in 50 mM KOH, 0.78 mL of 50 mM potassium phosphate buffer, pH 10.0, and test samples were pipetted in cuvettes. The reaction was initiated by the automated dispensing of 0.11 mL of 1.45 mM xanthine (final volume 1.0 mL). Chemiluminescence in duplicate samples at 35° C. was measured for 6 min in 1-min cycles. Peroxyl radicals were generated by thermal decomposition of 2,2′-azobis(2-amidinopropane)-hydrochloride as follows. 0.45 mL of 0.1 M sodium phosphate buffer, pH 7.4, containing 0.9% NaCl, 0.02 mL of 120 mM linoleic acid, 0.05 mL of luminol (0.5 mg/mL) and test compounds were mixed in the cuvette. The assay was initiated by 0.05 mL of ABAP (83 mg/mL). Chemiluminescence in triplicate cuvettes at 37° C. was measured until a peak value for each sample was detected. The half-peak time point defined the peroxyl radical trapping capacity.
# [3] = Scavenging of peroxyl radicals in vitro (thermal decomposition of ABAP, luminol chemiluminescence); conditions: for Stoichiometric factor (peroxyl radicals), range over the two test series: Series 1 and 2 together
# Description: as §1
# [4] = Series 1, pure compounds, rat liver microsomes
# [5] = knotwood extracts, fractions and reference compounds, rat liver microsomes
# [6] = knotwood extracts, fractions and reference compounds
# [7] = Series 2, pure compounds, different batch of rat liver microsomes
SMILES,"IC50 [1, 4] [µM]","Inhibition of lipid peroxidation in vitro, IC50 [1, 5] [µg/mL]","IC50 ([2]; Series 1, pure compounds) [µM]","Scavenging of superoxide radicals in vitro, IC50 [2, 6] [µg/mL]","Stoichiometric factor (peroxyl radicals scavenged per mole of compound) ([3]; Series 1, pure compounds) [mole/mole]","Trapping capacity (peroxyl radicals scavenged per gram) ([3]; Series 1, pure compounds) [mmol/g]","Stoichiometric factor (peroxyl radicals scavenged per mole of compound) ([3]; Series 2, pure compounds) [mole/mole]","Trapping capacity (peroxyl radicals scavenged per gram) ([3]; Series 2, pure compounds) [mmol/g]","Inhibition of lipid peroxidation in vitro, IC50 [1, 4] [µg/mL]","IC50 [1, 7] [µM]","Inhibition of lipid peroxidation in vitro, IC50 [1, 7] [µg/mL]","Scavenging of superoxide radicals in vitro, IC50 ([2]; Series 1, pure compounds) [µg/mL]","Scavenging of superoxide radicals in vitro, IC50 ([2]; Series 1, pure compounds, listed as nortrachelogenin)","Stoichiometric factor (peroxyl radicals), range over the two test series [3]","Scavenging of superoxide radicals in vitro, IC50 ([2]; Series 1, pure compounds, listed as secoisolariciresinol)","Trapping capacity (peroxyl radicals scavenged per gram) ([3]; knotwood extracts, fractions and reference compound) [mmol/g]"
"COc1ccc(O)c(C(C)(C)C)c1 [BHA, butylated hydroxyanisole, reference compound]",1.1,0.198,0.015,0.0027,,,,,,,,,,,,
COc1cc(C[C@H]2C(=O)OC[C@@H]2[C@H](O)c2ccc(O)c(OC)c2)ccc1O [Hydroxymatairesinol],0.15,,0.217,,2.1,5.6,2.7,7.3,0.058,0.18,0.067,0.081,,,,
COc1cc(C[C@H]2CO[C@H](c3ccc(O)c(OC)c3)[C@H]2CO)ccc1O [Lariciresinol],0.35,,0.035,,1.0,2.7,2.6,7.3,0.126,0.17,0.063,0.013,,,,
COc1cc(C[C@H]2COC(=O)[C@@H]2Cc2ccc(O)c(OC)c2)ccc1O [Matairesinol],0.28,,0.04,,1.0,2.9,,,0.099,,,0.014,,,,
COc1cc(CC2COC(=O)C2(O)Cc2ccc(O)c(OC)c2)ccc1O (centres unmarked) [Nortrachelogenin],0.14,,0.0014,,2.2,5.9,2.0,5.3,0.053,0.19,0.07,0.00053,more effective scavengers than both BHA and Trolox,,,
COc1cc(C[C@@H](CO)[C@H](CO)Cc2ccc(O)c(OC)c2)ccc1O [Secoisolariciresinol],0.1,,0.0048,,3.1,8.5,4.0,11,0.037,0.15,0.054,0.0018,,3.1-4.0 mole/mole,more effective scavengers than both BHA and Trolox,
"Cc1c(C)c2c(c(C)c1O)CCC(C)(C(=O)O)O2 (centres unmarked) [Trolox, 6-hydroxy-2,5,7,8-tetramethylchroman-2-carboxylic acid, reference compound]",0.02,0.005,0.025,0.0063,2.0,8.0,1.7,6.8,,0.18,0.046,,,1.7-2.0 mole/mole,,8.0
